The values below come from ChEMBL document CHEMBL1158475, “Identification of novel falcipain-2 inhibitors as potential antimalarial agents through structure-based virtual screening” (J Med Chem, 2009).

The structures appear in SMILES notation. The source made the active and inactive calls. The calls are words filed in the database; no cut-off is given here.

In test [1] the test system is Plasmodium falciparum. As to the kind of experiment: Inhibition of Plasmodium falciparum recombinant falcipain-2 at 10 uM by microtiter plate spectrofluorimetry.
Test [2] can be described thus: Inhibition of Plasmodium falciparum recombinant falcipain-2 by microtiter plate spectrofluorimetry.
The test system of test [3] is Plasmodium falciparum. As to the kind of experiment: Inhibition of Plasmodium falciparum recombinant falcipain-2 at 10 uM after dialysis in refolding buffer for 8 hrs by SDS-PAGE.
For test [4], the system named is Plasmodium falciparum. Description: Binding affinity to Plasmodium falciparum recombinant falcipain-2 by isothermal titration calorimetry. Background: ITC needs no label: the signal is the heat of the interaction.
Test [5] has as its system Plasmodium falciparum. Description: Induction of Plasmodium falciparum recombinant falcipain-2 aggregation by FPLC gel filtration chromatography. Background: Size exclusion chromatography separates by hydrodynamic size, large species first.
For test [6], the system named is Plasmodium falciparum. Description: Induction of Plasmodium falciparum recombinant falcipain-2 aggregation by pseudonative gel analysis.

Regarding `CC(=O)c1ccc(NC(=O)CSc2nnc(COc3ccc4ccccc4c3)n2-c2ccccc2)cc1`, the inhibition (commonly the drop in the measured response relative to a control, in per cent) with Plasmodium falciparum [1] was 23.4%. Moreover, in test [2], the half-inhibitory concentration (IC50) (as a rule, the concentration that gives 50% inhibition) was more than 50 µM.
As to `CCc1ccc(OCc2nnc(SCC(=O)Nc3ccc4ccccc4c3)o2)cc1`, the inhibition in the test with Plasmodium falciparum [1] amounted to 21.9%. Moreover, in test [2], the IC50 was more than 50 µM.
As for `Cc1cccc(OCC(=O)Nc2nc(-c3ccc(S(=O)(=O)N4CCOCC4)cc3)cs2)c1`, in the test on Plasmodium falciparum [1], the inhibition was 21.3%. Further, the IC50 in test [2] was more than 50 µM.
For the molecule `O=C(CN1C(=O)S/C(=C/c2ccc(-c3ccc(Cl)c(C(=O)O)c3)o2)C1=O)Nc1ccc2c(c1)OCO2`, the inhibition with Plasmodium falciparum [1] amounted to 41.4%. Also, the IC50 in test [2] came out at 10.9 µM.
As for `O=C(COc1ccc2ccccc2c1)NCC(=O)N/N=C/c1ccc(-c2ccc(Cl)c(Cl)c2)o1`, the inhibition in the test with Plasmodium falciparum [1] was 48.5%. Further, the IC50 in test [2] was determined as 13.2 µM.
`O=C(COC(=O)c1ccc(S(=O)(=O)c2cccc(S(=O)(=O)N3CCOCC3)c2)cc1)c1ccccc1`: the inhibition with Plasmodium falciparum [1] came to 36.9%. The IC50 in test [2] came out at 20 µM.
On the same counts, the results for `O=C(CCc1ccc(S(=O)(=O)NCCc2ccccc2)cc1)Nc1ccc2c(c1)OCCO2` are 20.3% and 54.2 µM.
Take `O=C(NC(Cc1c[nH]c2ccccc12)C(=O)NCc1ccccc1)Oc1ccccc1` (centres undefined): the inhibition with Plasmodium falciparum [1] was 29.4%. Moreover, the 50% inhibitory concentration (IC50) in test [2] is 29.7 µM.
The like results for `O=C(Cc1nnc(NC(=O)c2ccc(Br)cc2)s1)NNC(=O)c1ccc(Br)cc1` were, in that order, 20.2% and more than 50 µM.
The like results for `O=C(COc1cccc(Cl)c1)Nc1nc(-c2ccc(S(=O)(=O)N3CCOCC3)cc2)cs1` were, in that order, 25.2% and 20 µM.
Take `CC(C)C[C@H](NC(=O)[C@H]1O[C@@H]1C(=O)O)C(=O)NCCCCN=C(N)N` [E-64]: in the test with Plasmodium falciparum [1], the inhibition came out at 97.4%. Also, the half-maximal inhibitory concentration (IC50) in test [2] was 0.017 µM. The result with Plasmodium falciparum [3] and with Plasmodium falciparum [4] was Active.
`O=C(Cn1nnc(-c2ccccc2)n1)N/N=C/c1ccccc1OCc1ccc(Cl)cc1Cl`: the inhibition in the test with Plasmodium falciparum [1] was 28.9%. The IC50 in test [2] is 20 µM.
Turning to `COc1cccc(OCC(=O)NC(=S)Nc2cccc(-c3nc4ncccc4o3)c2C)c1`, the inhibition in the test on Plasmodium falciparum [1] is 20.2%. Moreover, the IC50 in test [2] was more than 50 µM.
On to `CCn1c(CNC(=O)Cc2ccc(OC)cc2)nnc1SCC(=O)Nc1ccc(Cl)c(Cl)c1`, for which the inhibition in the test with Plasmodium falciparum [1] was 25.9%. In addition, in test [2], the IC50 was determined as 20 µM.
The like results for `O=C(CSc1nnc(SCC(=O)Nc2ccc(Cl)cc2)s1)Nc1ccc(Cl)cc1` were, in that order, 28.2% and 20 µM.
`COc1cccc(/C=N/NC(=O)c2ccn(Cc3ccc(Cl)cc3Cl)n2)c1O`: the inhibition in the test on Plasmodium falciparum [1] was determined as 21.8%. For the same molecule, in test [2], the IC50 is more than 50 µM.
As to `CC(Sc1nc(-c2ccccc2O)n[nH]1)C(=O)Nc1cccc(Cl)c1` (centres undefined), the inhibition in the test on Plasmodium falciparum [1] was 71.4%. The IC50 in test [2] is 5.8 µM.
As for `Cc1ccc(NC(=O)CN2C(=O)S/C(=C/c3ccc(-c4ccc(Cl)c(C(=O)O)c4)o3)C2=O)cc1`, the inhibition in the test on Plasmodium falciparum [1] stood at 29%. Besides, the IC50 in test [2] stood at 20 µM.
Consider `COc1cc(NS(=O)(=O)c2ccc(NC(=O)c3cc(-c4cccc(C)c4)nc4ccccc34)cc2)ncn1`, for which, in the test on Plasmodium falciparum [1], the inhibition was 26.9%. The IC50 in test [2] came out at 20 µM.
As for `Cc1cc(C)nc(NS(=O)(=O)c2ccc(NC(=S)NC(=O)c3cccnc3)cc2)n1`, in the test with Plasmodium falciparum [1], the inhibition stood at 20.2%. In addition, in test [2], the IC50 was more than 50 µM.
As to `COc1ccc(C(=O)NNC(=O)CSc2nnc(COc3ccc4ccccc4c3)n2C)cc1`, the inhibition in the test with Plasmodium falciparum [1] was 20.8%. The IC50 in test [2] is more than 50 µM.
On to `Nc1nnc(SCC(=O)Nc2ccc3nc(SCc4cccc5ccccc45)sc3c2)s1`, for which the inhibition in the test with Plasmodium falciparum [1] turned out to be 44%. In test [2], the 50% inhibitory concentration (IC50) stood at 15 µM.
Take `CCOC(=O)c1ccc(NC(=O)CSc2nnc(-c3ccccc3Br)n2CC)cc1`: the inhibition in the test on Plasmodium falciparum [1] turned out to be 38.3%. The IC50 in test [2] came to 17.1 µM.
Consider `CC(=O)c1ccc(-c2ccc(/C=N/Nc3nc(N4CCCCC4)nc(N4CCCCC4)n3)o2)cc1`, for which the inhibition with Plasmodium falciparum [1] turned out to be 27.9%. Moreover, the IC50 in test [2] came to 20 µM.
Consider `Cc1c(Cl)cccc1-c1ccc(/C=N\Nc2nncn2/N=C/c2ccc(-c3cccc(Cl)c3C)o2)o1`, for which the inhibition with Plasmodium falciparum [1] came to 56.5%. Besides, the IC50 in test [2] was 6.4 µM.
Take `CC(NC(=O)COc1ccc2ccccc2c1)C(=O)N/N=C/c1cccc(Cl)c1Cl` (centres undefined): the inhibition in the test with Plasmodium falciparum [1] was determined as 25.1%. Also, in test [2], the IC50 is more than 50 µM.
`CCOC(=O)c1c(-c2ccc(-c3ccccc3)cc2)csc1NC(=O)CSc1nnc2sc3ccccc3n12`: the inhibition in the test with Plasmodium falciparum [1] is 36.6%. For the same molecule, in test [2], the IC50 came to 15 µM.
For the molecule `C=CCn1c(SCC(=O)Nc2sc3c(c2C(N)=O)CCC3)nc2scc(-c3ccccc3)c2c1=O`, the inhibition in the test on Plasmodium falciparum [1] was 53.1%. The IC50 in test [2] turned out to be 2.4 µM. The result in the test with Plasmodium falciparum [3], with Plasmodium falciparum [4], in the test with Plasmodium falciparum [5] and with Plasmodium falciparum [6] was inactive.
For the molecule `CC(=O)c1ccc(NC(=O)CSc2nnc(COc3cccc4cccnc34)n2-c2ccccc2)cc1`, in the test on Plasmodium falciparum [1], the inhibition amounted to 21.9%. The IC50 in test [2] is more than 50 µM.
